From US10793542B2, “Hetroarylamine compounds for modulating the hedgehog pathway and preparing method and uses thereof” (DEVELOPMENT CENTER FOR BIOTECHNOLOGY, priority 2016, dated 2020)

Columns and labels:
Type in all cases: cell-based
[1] = tested on: hedgehog pathway (pGL3-7xGli-Luciferase reporter in C3H10T1/2 cells); assay: Transient transfection of C3H10T1/2 and Gli-Luc reporter assay with SAG stimulation; settings: Mus musculus, C3H 10T1/2, SAG 20 nM, 48 hr, read-out: Inhibition of Gli-Luc expression [IC50
How it was run: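 C3H10T1/2 cells were transiently transfected with a 7xGli-firefly luciferase reporter and a TK-Renilla control, then treated with serially diluted compounds plus 20 nM SAG in 0.5% FBS for 48 h at 37 °C. Firefly signal was normalized to Renilla and scaled between DMSO with SAG (100%) and without SAG (0%). IC50 was obtained by nonlinear regression.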

[2] = molecular target: T1, Smo wild type (Homo sapiens, UniProt Q99835); assay: Reporter assay of C3H10T1/2-Gli-Luc cells transfected with wild-type Smo, without SAG; settings: C3H10T1/2 cells transfected with pLPCX-SMO, no SAG, 48 hr; read-out: Inhibition of C3H10T1/2-Gli-Luc-Smo-WT [IC50
T1 construct: expressed in transfected cells; host or cells: C3H10T1/2 cells (ATCC CCL-226), transient transfection with pLPCX-SMO
T1 sequence (Q99835 28-787): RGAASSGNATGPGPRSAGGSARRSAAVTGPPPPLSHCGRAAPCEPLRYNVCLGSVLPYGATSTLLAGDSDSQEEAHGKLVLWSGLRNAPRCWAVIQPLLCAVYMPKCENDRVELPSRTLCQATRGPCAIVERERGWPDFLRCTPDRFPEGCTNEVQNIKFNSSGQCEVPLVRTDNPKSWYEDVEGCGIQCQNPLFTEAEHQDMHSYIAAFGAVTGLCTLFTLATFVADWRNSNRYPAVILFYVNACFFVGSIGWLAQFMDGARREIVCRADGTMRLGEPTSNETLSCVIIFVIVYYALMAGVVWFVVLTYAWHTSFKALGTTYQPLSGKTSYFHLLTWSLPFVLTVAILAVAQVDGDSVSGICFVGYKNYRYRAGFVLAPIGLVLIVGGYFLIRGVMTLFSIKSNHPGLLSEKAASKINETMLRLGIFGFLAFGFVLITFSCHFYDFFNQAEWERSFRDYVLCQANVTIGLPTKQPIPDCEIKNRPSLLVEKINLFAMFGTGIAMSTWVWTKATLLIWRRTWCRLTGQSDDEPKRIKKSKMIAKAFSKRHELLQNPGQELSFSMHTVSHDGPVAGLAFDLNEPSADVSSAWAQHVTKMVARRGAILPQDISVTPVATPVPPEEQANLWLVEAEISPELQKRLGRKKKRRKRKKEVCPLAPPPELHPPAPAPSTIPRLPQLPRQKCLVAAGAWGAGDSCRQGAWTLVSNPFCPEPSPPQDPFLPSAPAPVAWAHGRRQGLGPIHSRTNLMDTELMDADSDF
How it was run: (§1)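 C3H10T1/2-Gli-Luc cells transiently transfected with wild-type or D473H SMO, replated in 0.5% FBS RPMI and incubated with compounds 48 h at 37 °C without SAG. Dual-luciferase, firefly normalized to Renilla; scaled to DMSO (100%) and 10 μM ALLO-2 (0%); IC50 by nonlinear regression.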

[3] = molecular target: T2, Smo D473H mutant (Homo sapiens, UniProt Q99835, D473H); assay: Reporter assay of C3H10T1/2-Gli-Luc cells transfected with Smo D473H mutant, without SAG; settings: C3H10T1/2 cells transfected with pLPCX-SMO-D473H, no SAG, 48 hr; read-out: Inhibition of C3H10T1/2-Gli-Luc-Smo-D473H [IC50
T2 construct: expressed in transfected cells; host or cells: C3H10T1/2 cells (ATCC CCL-226), transient transfection with pLPCX-SMO-D473H
T2 sequence (Q99835 28-787 D473H): as the sequence (Q99835 28-787) above, with D446H counted along it
How it was run: as §1

| Structure (SMILES) | IC50 [1] | IC50 [2] | IC50 [3] |
| --- | --- | --- | --- |
| CSc1cnc(Nc2ccc(C(=O)Nc3cc(CN(C)C)ccc3C)cc2)cc1-c1ccc(OC(F)(F)F)cc1 [Compound 83, N-(5-Dimethylaminomethyl-2-methyl-phenyl)-4-[5-methylsulfanyl-4-(4-trifluoromethoxy-phenyl)-pyridin-2-ylamino]-benzamide] | < 100 nM | < 100 nM | < 100 nM |
| CSc1cnc(Nc2ccc(C(=O)Nc3cc(CN4CCN(C)CC4)ccc3C)cc2)nc1-c1ccc(OC(F)(F)F)cc1 [Compound 37, N-[2-Methyl-5-(4-methyl-piperazin-1-ylmethyl)-phenyl]-4-[5-methylsulfanyl-4-(4-trifluoromethoxy-phenyl)-pyrimidin-2-ylamino]-benzamide] | < 100 nM | < 100 nM | 100 to 1000 nM |
| COc1cnc(Nc2ccc(C(=O)Nc3cc(CN4CCN(C)CC4)ccc3C)cc2)nc1-c1ccc(OC(F)(F)F)cc1 [Compound 52, 4-[5-Methoxy-4-(4-trifluoromethoxy-phenyl)-pyrimidin-2-ylamino]-N-[2-methyl-5-(4-methyl-piperazin-1-ylmethyl)-phenyl]-benzamide] | < 100 nM | < 100 nM | > 1000 nM |
| CSc1cnc(Nc2ccc(C(=O)Nc3cccc(CN4CCOCC4)c3)cc2)nc1-c1ccc(F)cc1 [Compound 43, 4-[4-(4-Fluoro-phenyl)-5-methylsulfanyl-pyrimidin-2-ylamino]-N-(3-morpholin-4-ylmethyl-phenyl)-benzamide] | < 100 nM | < 100 nM | 100 to 1000 nM |
| CSc1cnc(Nc2ccc(C(=O)Nc3cc(CN4CCN(C)CC4)ccc3C)cc2)nc1-c1ccc(F)cc1 [Compound 36, 4-[4-(4-Fluoro-phenyl)-5-methylsulfanyl-pyrimidin-2-ylamino]-N-[2-methyl-5-(4-methyl-piperazin-1-ylmethyl)-phenyl]-benzamide] | < 100 nM | < 100 nM | 100 to 1000 nM |
| COc1cccc(OC)c1NC(=O)c1ccc(Nc2ncc(SC)c(-c3ccc(OC(F)(F)F)cc3)n2)cc1 [Compound 22, N-(2,6-Dimethoxy-phenyl)-4-[5-methylsulfanyl-4-(4-trifluoromethoxy-phenyl)-pyrimidin-2-ylamino]-benzamide] | < 100 nM | < 100 nM | 100 to 1000 nM |
| CCN(CC)Cc1ccc(C)c(NC(=O)c2ccc(Nc3ncc(SC)c(-c4ccc(F)cc4)n3)cc2)c1 [Compound 47, N-(5-Diethylaminomethyl-2-methyl-phenyl)-4-[4-(4-fluoro-phenyl)-5-methylsulfanyl-pyrimidin-2-ylamino]-benzamide] | < 100 nM | < 100 nM | 100 to 1000 nM |
| CCOc1cnc(Nc2ccc(C(=O)Nc3cc(CN4CCOCC4)ccc3C)cc2)nc1-c1ccc(OC(F)(F)F)cc1 [Compound 72, 4-[5-Ethoxy-4-(4-trifluoromethoxy-phenyl)-pyrimidin-2-ylamino]-N-(2-methyl-5-morpholin-4-ylmethyl-phenyl)-benzamide] | < 100 nM | < 100 nM | < 100 nM |
| CSc1cnc(Nc2ccc(C(=O)Nc3cc(CN4CCOCC4)ccc3C)cc2)nc1-c1ccccc1 [Compound 20, N-(2-Methyl-5-morpholin-4-ylmethyl-phenyl)-4-(5-methylsulfanyl-4-phenyl-pyrimidin-2-ylamino)-benzamide] | < 100 nM | < 100 nM | 100 to 1000 nM |
| CCOc1cnc(Nc2ccc(C(=O)Nc3cc(CN(CC)CC)ccc3C)cc2)nc1-c1ccc(F)cc1 [Compound 77, N-(5-Diethylaminomethyl-2-methyl-phenyl)-4-[5-ethoxy-4-(4-fluoro-phenyl)-pyrimidin-2-ylamino]-benzamide] | < 100 nM | < 100 nM | 100 to 1000 nM |
| CCOc1cnc(Nc2ccc(C(=O)Nc3cc(CN4CCN(C)CC4)ccc3C)cc2)nc1-c1ccc(OC(F)(F)F)cc1 [Compound 73, 4-[5-Ethoxy-4-(4-trifluoromethoxy-phenyl)-pyrimidin-2-ylamino]-N-[2-methyl-5-(4-methyl-piperazin-1-ylmethyl)-phenyl]-benzamide] | < 100 nM | < 100 nM | 100 to 1000 nM |
| CSc1cnc(Nc2ccc(C(=O)Nc3cc(CN4CCOCC4)ccc3C)cc2)nc1-c1ccncc1 [Compound 26, N-(2-Methyl-5-morpholin-4-ylmethyl-phenyl)-4-(5-methylsulfanyl-4-pyridin-4-yl-pyrimidin-2-ylamino)-benzamide] | < 100 nM | < 100 nM | 100 to 1000 nM |
| CSc1cnc(Nc2ccc(C(=O)Nc3cc(CN4CCOCC4)ccc3F)cc2F)nc1-c1ccc(F)cc1 [Compound 57, 3-Fluoro-N-(2-fluoro-5-morpholin-4-ylmethyl-phenyl)-4-[4-(4-fluoro-phenyl)-5-methylsulfanyl-pyrimidin-2-ylamino]-benzamide] | < 100 nM | < 100 nM | 100 to 1000 nM |
| COc1cnc(Nc2ccc(C(=O)Nc3cc(CN4CCOCC4)ccc3C)cc2)nc1-c1ccc(OC(F)(F)F)cc1 [Compound 38, 4-[5-Methoxy-4-(4-trifluoromethoxy-phenyl)-pyrimidin-2-ylamino]-N-(2-methyl-5-morpholin-4-ylmethyl-phenyl)-benzamide] | < 100 nM | < 100 nM | < 100 nM |
| COc1ccc(CN2CCOCC2)cc1NC(=O)c1ccc(Nc2ncc(SC)c(-c3ccc(OC(F)(F)F)cc3)n2)c(F)c1 [Compound 58, 3-Fluoro-N-(2-methoxy-5-morpholin-4-ylmethyl-phenyl)-4-[5-methylsulfanyl-4-(4-trifluoromethoxy-phenyl)-pyrimidin-2-ylamino]-benzamide] | < 100 nM | < 100 nM | 100 to 1000 nM |
| COc1cccc(C)c1NC(=O)c1ccc(Nc2ncc(SC)c(-c3cccnc3F)n2)c(F)c1 [Compound 15, 3-Fluoro-4-[4-(2-fluoro-pyridin-3-yl)-5-methylsulfanyl-pyrimidin-2-ylamino]-N-(2-methoxy-6-methyl-phenyl)-benzamide] | < 100 nM | < 100 nM | 100 to 1000 nM |
| CSc1cnc(Nc2ccc(C(=O)Nc3cc(CN4CCOCC4)ccc3C)cc2)nc1-c1ccc(C(F)(F)F)cc1 [Compound 27, N-(2-Methyl-5-morpholin-4-ylmethyl-phenyl)-4-[5-methylsulfanyl-4-(4-tiifluoromethyl-phenyl)-pyrimidin-2-ylamino]-benzamide] | < 100 nM | < 100 nM | 100 to 1000 nM |
| CNc1cnc(Nc2ccc(C(=O)Nc3cc(CN4CCOCC4)ccc3C)cc2)nc1-c1ccc(OC(F)(F)F)cc1 [Compound 91, N-(2-methyl-5-(morpholinomethyl)phenyl)-4-((5-(methylamino)-4-(4-(trifluoromethoxy)phenyl)pyrimidin-2-yl)amino)benzamide] | < 100 nM | < 100 nM | < 100 nM |
| CSc1cnc(Nc2ccc(C(=O)Nc3ccccc3C)cc2F)nc1-c1cccnc1F [Compound 16, 3-Fluoro-4-[4-(2-fluoro-pyridin-3-yl)-5-methylsulfanyl-pyrimidin-2-ylamino]-N-o-tolyl-benzamide] | 100 to 1000 nM | 100 to 1000 nM | 100 to 1000 nM |
| CSc1cnc(Nc2ccc(C(=O)Nc3cc(CN4CCCCC4)ccc3C)cc2F)nc1-c1ccc(F)cc1 [Compound 42, 3-Fluoro-4-[4-(4-fluoro-phenyl)-5-methylsulfanyl-pyrimidin-2-ylamino]-N-(2-methyl-5-piperidin-1-ylmethyl-phenyl)-benzamide] | < 100 nM | < 100 nM | 100 to 1000 nM |
| COc1cnc(Nc2ccc(C(=O)Nc3cc(CN4CCNCC4)ccc3C)cc2)nc1-c1ccc(F)cc1 [Compound 79, 4-[4-(4-Fluoro-phenyl)-5-methoxy-pyrimidin-2-ylamino]-N-(2-methyl-5-piperazin-1-ylmethyl-phenyl)-benzamide] | < 100 nM | 100 to 1000 nM | 100 to 1000 nM |
| CSc1cnc(Nc2ccc(C(=O)Nc3c(C)cccc3C)cc2F)nc1-c1cccnc1F [Compound 12, N-(2,6-Dimethyl-phenyl)-3-fluoro-4-[4-(2-fluoro-pyridin-3-yl)-5-methylsulfanyl-pyrimidin-2-ylamino]-benzamide] | 100 to 1000 nM | 100 to 1000 nM | 100 to 1000 nM |
| COc1cccc(C)c1NC(=O)c1ccc(Nc2ncc(SC)c(-c3ccc(F)nc3)n2)c(F)c1 [Compound 17, 3-Fluoro-4-[4-(6-fluoro-pyridin-3-yl)-5-methylsulfanyl-pyrimidin-2-ylamino]-N-(2-methoxy-6-methyl-phenyl)-benzamide] | 100 to 1000 nM | 100 to 1000 nM | 100 to 1000 nM |
| CSc1cnc(Nc2ccc(C(=O)Nc3cc(CN4CCOCC4)ccc3C)cc2)nc1-c1ccc(OC(F)(F)F)cc1 [Compound 24, N-(2-Methyl-5-morpholin-4-ylmethyl-phenyl)-4-[5-methylsulfanyl-4-(4-trifluoromethoxy-phenyl)-pyrimidin-2-ylamino]-benzamide] | < 100 nM | < 100 nM | < 100 nM |
